Experimental data published in patent US20100003223A1, “METHOD FOR THE PRODUCTION OF MULTICOMPONENT STEM CELLS, RELATIVE KITS AND USES IN THE MEDICAL FIELD” (Metapontium Agrobios S.R.L., priority 2006, published 2010).

Columns and labels:
embryoid bodies = conditions: 1 μM, 6 hours; cited from earlier work
adipocytes = experiment: Determination of cell apoptosis (TACS Klenow In Situ Apoptotic Detection kit); format: cell-based, human
adipose cells = experiment: Cell growth determination by BrdU incorporation; format: cell-based, human; conditions: adipose cells treated
mature adipose cells = experiment: Morphological analysis of treated cultures by optical (phase contrast) microscopy
Description: Human pre-adipocytes and embryonic cell lines 3T3-L1 were sown at a density of 5×10^3 cells/cm^2 and cultivated in Petri plates in a proliferative medium (DMEM-F12, 10% Fetal Calf Serum (FCS), 1% antibiotic-fungizone (AF)) until the maximum cell confluence is reached. The differentiative induction is obtained by 48 hour treatment in specific medium consisting of DMEM, 10% Fetal Bovine Serum (FBS), 1 AF and specific differentiating factors (insulin, isobutylmethylxanthine, dexamethasone, indomethacin). The mature differentiated form (univacuolar phenotype) is reached after culture of 7-10 days in maintenance medium, free of adipogenic inductive agents. Immunofluorescence studies verify the expression of leptin, a hormone typically expressed by adipocytes in adult phase.
The mature adipose cells were maintained in a culture with DMEM, 10% FBS, 1 AF for two weeks, under continuous stimulation of 5′ Azacytidine at molar concentrations of 0.1 μM, 1 μM, 10 M, 100 μM, 125 μM, 150 μM, 175 μM, 250 μM.

[1] = system: late-phase adipogenic markers (leptin, GLUT-4); experiment: Semiquantitative PCR / RT-PCR of adipogenic marker expression; format: cell-based, human; conditions: preliminary results; FIG. 1: Ob gene (leptin), 175 μM
Description: In order to amplify the cDNA obtained from the 5-Aza cultures treated, the following were used: • Eppendorf thermocycler Amplifier; • Specific primers designed with the help of the PrimerQuest program (http://biotools.idt.com) and Nucleotide database consultation (http://www.ncbi.nlm.nih.gov) and BLAST (Basic Local Alignment Search Tool) (http://www.ncbi.nlm.nih.gov/BLAST/).
The primers were purchased from New England Biolabs.
Amplification conditions: 95° C. for 10 minutes (initial denaturation), 30 cycles of 95° C. for 30 seconds (denaturation), 52° C. for 45 seconds (annealing), 72° C. for 45 seconds (extension), 72° C. for 10 minutes (final extension). The reaction mixture was prepared with 1 μl of cDNA, 1 μl of dNtPs Mix (10 mM), 1.25 μl of MgCl2 solution (25 mM), 1.25 μl of buffer 10×, 0.2 μl of Ampli Taq Gold (5U μl) (Applied Biosystem), 1 μl of specific sense primer and 1 μl of antisense primer (10 μM), […] of H2O RNase free in a final volume of 12.5 μl.
The expression of the late-phase adipogenic markers (leptin, GLUT-4), precocious-phase markers (PPAR-γ, CEBP-α) and markers typical of the undifferentiated embryonic state (OCT4, SOX2, NANOG, SSEA-1, alkaline phosphatase) was evaluated by means of PCR and RT-PCR.

## Nc1ncn([C@@H]2O[C@H](CO)[C@@H](O)[C@H]2O)c(=O)n1 [5-Azacytidine, 5′ Aza 2′ cytidine]
Embryoid bodies
  colony growth process and sensitivity to LIF: re-established the colony growth process typical of stem cells and the sensitivity to LEUKEMIA INHIBITORY FACTOR (LIF)
adipocytes; 125 μM, 25 hours after treatment
  apoptotic phenomena: 15%
adipocytes; 125 μM, 48 hours after treatment
  apoptotic phenomena: 15%
adipocytes; 125 μM, 72 hours after treatment
  apoptotic phenomena: 10%
adipocytes; 150 μM, 25 hours after treatment
  apoptotic phenomena: 22%
adipocytes; 150 μM, 48 hours after treatment
  apoptotic phenomena: 28%
adipocytes; 150 μM, 72 hours after treatment
  apoptotic phenomena: 10%
adipocytes; 175 μM, 25 hours after treatment
  apoptotic phenomena: 38%
adipocytes; 175 μM, 48 hours after treatment
  apoptotic phenomena: 41%
adipocytes; 175 μM, 72 hours after treatment
  apoptotic phenomena: 10%
Adipose cells
  cell proliferation by incorporated BrdU: Cell proliferation is observed
Mature adipose cells; 250 μM
  apoptosis of treated cultures (FIG. 7): a high apoptotic degree is observed
Mature adipose cells; doses ≦0.1 μM
  cell damage and/or cell proliferation (FIG. 8): no signs of cell damage and/or cell proliferation
Mature adipose cells; mainly at 1-10 μM and higher than 100 μM, 10 days of treatment, preliminary results
  morphology of the plate: a change in the morphology of the plate
[1]
  expression of the differentiative late-phase adipogenic markers: a reduction in the expression
